Source: patent US6235736A, “3-anilino-2-cycloalkenone derivatives” (Nikken Chemicals Co., Ltd., priority 1997, dated 2001)

Columns and labels:
Type IV PDE = assay: PDE IV inhibitory activity (isozyme partially purified from rat neutrophils, 3H-cAMP substrate); type: biochemical; settings: rat neutrophil PDE IV, 30° C., 30 minutes, read-out: PDE IV inhibiting action IC50
Procedure: Type I, III, IV, and V PDE isozymes were prepared to study the PDE inhibitory activities of and selectivities with the compound of the invention [Trends Pharmacol Sci., 12, 19-27 (1991)]. Type I PDE was purchased from Sigma Corp. Type III, IV, and V PDE isozymes were partially purified from platelets (Type III and V) or neutrophils (Type IV) collected from rats. Each enzyme source was homogenized in a buffer (pH 6.5) containing 20 mM bisTris, 2 mM EDTA (i.e., ethlenediamine tetraacetate), 2-mercaptoethanol, 0.001 mM pepstatin and 0.01 mM leupeptin and was centrifuged at 30000×G for 30 minutes to obtain a supernatant, which was applied to an ion exchange column (Q-sepharose first flow, Pharmacia Corp.) and was eluted with 0 to 1M sodium acetate. Partially purified isozymes were identified by observing the inhibitory effects of conventional inhibitors.
Each PDE isozyme and the test compound dissolved in DMSO (i.e., dimethylsulfoxide) were added to 50 mM Tris--HCI buffer containing 5 mM magnesium chloride. ^3 H-cAMP (for type III and IV PDE) or ^3 H-cGMP (for type I and V PDE) were added as substrates and were reacted at 30° C. for 30 minutes. The reaction was terminated by placing the test tube in boiling water of 100° C. for 5 minutes. The nucleotides formed by PDE were broken down to ^3 H-adenosine or ^3 H-guanosine by 5'-nucleotidase. The substrate and reaction product were separated through an ion-exchange column (i.e., QAE sephadex, Pharmacia Corp.)
The eluted ^3 -H-nucleoside was measured for its radioactivity by a liquid scintillation counter. The inhibitory activities of the compound of the present invention are shown by the IC50 value (M). Further, the inhibitory activities of the test samples against type I, III, and V PDE are 1/10 or less than that against Type IV PDE.

[1] = test system: TPA induced ear edema in mouse; assay: TPA induced mouse ear edema assay; type: in vivo, mouse (male ICR); settings: 0.1 mg applied to right ear immediately after TPA; 6 hour
Procedure: Male ICR mice, 5 week old, were divided into groups of seven to eight. 2 μg of TPA (phorbor 12-ministate; Sigma Co.) in 20 μl acetone was applied to the inner and outer surface of right ear of each mouse to cause a reaction. 0.1 mg of compound was dissolved in 20 μl of a tetrahydrofuran-methanol mixture (mixture ratio 1:1) and the solution (20 μl) applied to the right ear immediately after TPA treatment. After 6 hour, the animals were sacrificed and right ear was punched out (.phi. […]) and weighed. The effect of comppund.was calculated as % inhibition as follows: [formula]

[2] = test system: antigen-induced bronchoconstriction in guinea-pig; assay: Inhibitory effect on antigen-induced bronchospasm (anti-asthmatic action); type: in vivo, guinea-pig (Hartley male); settings: Cavia porcellus; intravenous, 10 minutes before 0.2 mg/kg OA challenge; read-out: Action suppressing antigen induced bronchoconstriction ED50
Procedure: Hartley male guinea-pig was sensitized by intramuscular administration of 35 mg Ovalbumin (OA) at first day and fourth day. After 25 to 29 days of first sensitization, trachial canula was introduced in the guinea pig anesthetized with pentobarbital and artificial ventilation was performed. The overflow of the ventilation was measured by the Konzett Roessler method while 0.2 mg/kg OA were administered intravenously. The test compound was dissolved in polyethylene glycol 400 and intravenously administered 10 minutes before OA challenge.

SMILES | IC50 (Type IV PDE) | % Inhibition of ear edema [1] | ED50 [2]
COc1ccc(N(Cc2ccc3ccccc3n2)C2=CC(=O)CC2)cc1OC1CCCC1 [Compound No. 58, 3-[3-cyclopentyloxy-4-methoxy-N-(2-quinolylemethyl)anilino]-2-cyclopenten-1-one] | 530 nM | 58.7% | 
CCCCOc1cc(NC2=CC(=O)CC2)ccc1OC [Compound No. 17, 3-(3-butoxy-4-methoxyanilino)-2-cyclopenten-1-one] | 14000 nM | 57.1% | 
COc1ccc(NC2=C(C)C(=O)CC2)cc1OCCC1Cc2ccccc2C1 [Compound No. 35, 3-[3-[2-(2-indanyl)ethoxy]-4-methoxyanilino]-2-methyl-2-cyclopenten-1-one] | 290 nM | 52.5% | 
COc1ccc(NC2=CC(=O)CC2)cc1OC1CCCCC1 [Compound No. 13, 3-(3-cyclohexyloxy-4-methoxyanilino)-2-cyclopenten-1-one] | 7400 nM | 51.8% | 
COc1ccc(N(Cc2cccnc2)C2=CC(=O)CC2)cc1OC1CCCC1 [Compound No. 63, 3-[3-cyclopentyloxy-4-methoxy-N-(3-pyridylmethyl)anilino]2-cyclopenten-1-one] | 5300 nM | 75.4% | 
COc1ccc(N(Cc2ccccc2)C2=CC(=O)CCC2)cc1OC1Cc2ccccc2C1 [Compound No. 66, 3-[N-benzyl-3-(2-indanyloxy)-4-methoxyanilino]-2-cyclohexen-1-one] | 570 nM | 72.8% | 
COc1ccc(NC2=C(Br)C(=O)CC2)cc1OC1CCCC1 [Compound No. 7, 2-bromo-3-(3-cyclopentyloxy-4-methoxyanilino)-2-cyclopenten-1-one] | 280 nM | 55.8% | 
COc1ccc(NC2=C(C)C(=O)CCC2)cc1OCCC1Cc2ccccc2C1 [Compound No. 53, 3-[3-[2-(2-indanyl)ethoxy]-4-methoxyanilino]-2-methyl-2-cyclohexen-1-one] | 220 nM | 55.9% | 
CCC1=C(Nc2ccc(OC)c(OC3Cc4ccccc4C3)c2)CCC1=O [Compound No. 32, 2-ethyl-3-[3-(2-indanyloxy)-4-methoxyanilino]-2-cyclopenten-1-one] | 50 nM | 75.5% | 7.34 mg/kg
COc1ccc(N(Cc2ccncc2)C2=CC(=O)CCC2)cc1O[C@@H]1C[C@H]2CC[C@@H]1C2 (racemic) [Compound No. 85, 3-[3-[(1RS,2RS,4SR)-bicyclo[2.2. 1]hept-2-yloxy]4-methoxy-N-(4-pyridylmethyl)anilino]-2-cyclohexen-1-one] | 3600 nM | 70.3% | 
COc1ccc(N(Cc2ccc3ccccc3c2)C2=CC(=O)CC2)cc1OC1Cc2ccccc2C1 [Compound No. 79, 3-[3-(2-indanyloxy)-4-methoxy-N-(2-naphthylmethyl)anilino]-2-cyclopenten-1-one] | 730 nM | 89.0% | 
COc1ccc(N(Cc2ccccc2)C2=CC(=O)CC2)cc1O[C@@H]1C[C@H]2CC[C@@H]1C2 (racemic) [Compound No. 81, 3-[N-benzyl-3-[(1RS,2RS,4SR)-bicyclo[2.2. 1]hept-2-yloxy]4-methoxyanilino]-2-cyclopenten-1-one] | 1000 nM | 82.7% | 
COc1ccc(NC2=CC(=O)CCC2)cc1OC1CCCC1 [Compound No. 2, 3-(3-cyclopentyloxy-4-methoxyanilino)-2-cyclohexen-1-one] | 3700 nM | 65.0% | 
COc1ccc(N(Cc2ccc3ccccc3n2)C2=CC(=O)CC2)cc1O[C@@H]1C[C@H]2CC[C@@H]1C2 (relative stereo) [Compound No. 82, 3-[3-[(1RS,2RS,4SR)-bicyclo[2.2. 1]hept-2-yloxy]4-methoxy-N-(2-quinolinemethyl)anilino]-2-cyclopenten-1-one] | 530 nM | 84.4% | 
COc1ccc(NC2=C(C)C(=O)CC2)cc1OCC1CC1 [Compound No. 16, 3-(3-cyclopropylmethoxy-4-methoxyanilino)-2-methyl-2-cyclogenten-1-one] | 1000 nM | 72.1% | 
COc1ccc(N(Cc2ccccc2)C2=CC(=O)CCC2)cc1O[C@@H]1C[C@H]2CC[C@@H]1C2 (relative stereo) [Compound No. 84, 3-[N-benzyl-3-[rel(1R,2R,4S)-bicyclo[2.2. 1]hept-2-yloxy]-4-methoxyanilino]-2-cyclohexen-1-one] | 1400 nM | 71.8% | 
COc1ccc(NC2=CC(=O)CCC2)cc1OC1Cc2ccccc2C1 [Compound No. 19, 3-[3-(2-indanyloxy)-4-methoxyanilino]-2-cyclohexen-1-one] | 1800 nM | 76.3% | 
COc1ccc(N(C)C2=CC(=O)CC2)cc1OC1CCCC1 [Compound No. 26, 3-(3-cyclopentyloxy-4-methoxy-N-methylanilino)-2-cyclopenten-1-one] | 800 nM | 82.0% | 
COc1ccc(N(Cc2ccncc2)C2=CC(=O)CC2)cc1OC1Cc2ccccc2C1 [Compound No. 78, 3-[3-(2-indanyloxy)-4-methoxy-N-(4-pyridylmethyl)anilino]-2-cyclopenten-1-one] | 1300 nM | 82.2% | 
COc1ccc(N(Cc2ccc3ccccc3n2)C2=CC(=O)CC2)cc1OC1Cc2ccccc2C1 [Compound No. 80, 3-[3-(2-indanyloxy)-4-methoxy-N-(2-quinolylmethyl)anilino]-2-cyclopenten-1-one] | 120 nM | 64.4% | 
CCCN(C1=CC(=O)CC1)c1ccc(OC)c(OC2CCCC2)c1 [Compound No. 59, 3-(3-cyclopentyloxy-4-methoxy-N-propylanilino)-2-cyclopenten-1-one] | 7400 nM | 60.1% | 
COc1ccc(NC2=C(C)C(=O)CC2)cc1OC1Cc2ccccc2C1 [Compound No. 10, 3-[3-(2-indanyloxy)-4-methoxyanilino]-2-methyl-2-cyclopenten-1-one] | 140 nM |  | 0.86 mg/kg
COc1ccc(N(Cc2ccccc2)C2=CC(=O)CC2)cc1OC1CCCCC1 [Compound No. 56, 3-(N-benzyl-3-cyclohexyloxy-4-methoxyanilino)-2-cyclopenten-1-one] | 5500 nM | 86.1% | 
COc1ccc(NC2=CC(=O)CC2)cc1OCC1(c2ccccc2)CC1 [Compound No. 49, 3-[4-methoxy-3-[(1-phenylcyclopropyl)methoxy]anilino]-2-cyclopenten-1-one] | 2300 nM | 54.3% | 
COc1ccc(N(C)C2=CC(=O)CCC2)cc1OC1CCCC1 [Compound No. 27, 3-(3-cyclopentyloxy-4-methoxy-N-methylanilino)-2-cyclohexen-1-one] | 1900 nM | 86.4% | 
COc1ccc(N(C2=CC(=O)CC2)C2CCCC2)cc1OC1CCCC1 [Compound No. 60, 3-(N-cyclopentyl-3-cyclopentyloxy-4-methoxyanilino)-2-cyclopenten-1-one] | 44000 nM | 78.5% | 
CCC1=C(Nc2ccc(OC)c(O[C@@H]3C[C@H]4CC[C@@H]3C4)c2)CCC1=O (racemic) [Compound No. 45, 3-[3-[(1RS,2RS,4SR)-bicyclo[2.2. 1]hept-2-yloxy]-4-methoxyanilino]-2-ethyl-2-cyclopenten-1-one] | 80 nM | 75.3% | 
